pEC50: −log10 of the molar value.

This assay deals with T1, ABCB1 (Homo sapiens, UniProt P08183).
T1 construct: ABCB1 membrane vesicles
In words: vanadate-sensitive ATPase stimulation in ABCB1 membrane vesicles; supported by HPLC efflux and [3H]-paclitaxel accumulation in KB-C2 cells. The format is biochemical.

T1 sequence (P08183 whole entry): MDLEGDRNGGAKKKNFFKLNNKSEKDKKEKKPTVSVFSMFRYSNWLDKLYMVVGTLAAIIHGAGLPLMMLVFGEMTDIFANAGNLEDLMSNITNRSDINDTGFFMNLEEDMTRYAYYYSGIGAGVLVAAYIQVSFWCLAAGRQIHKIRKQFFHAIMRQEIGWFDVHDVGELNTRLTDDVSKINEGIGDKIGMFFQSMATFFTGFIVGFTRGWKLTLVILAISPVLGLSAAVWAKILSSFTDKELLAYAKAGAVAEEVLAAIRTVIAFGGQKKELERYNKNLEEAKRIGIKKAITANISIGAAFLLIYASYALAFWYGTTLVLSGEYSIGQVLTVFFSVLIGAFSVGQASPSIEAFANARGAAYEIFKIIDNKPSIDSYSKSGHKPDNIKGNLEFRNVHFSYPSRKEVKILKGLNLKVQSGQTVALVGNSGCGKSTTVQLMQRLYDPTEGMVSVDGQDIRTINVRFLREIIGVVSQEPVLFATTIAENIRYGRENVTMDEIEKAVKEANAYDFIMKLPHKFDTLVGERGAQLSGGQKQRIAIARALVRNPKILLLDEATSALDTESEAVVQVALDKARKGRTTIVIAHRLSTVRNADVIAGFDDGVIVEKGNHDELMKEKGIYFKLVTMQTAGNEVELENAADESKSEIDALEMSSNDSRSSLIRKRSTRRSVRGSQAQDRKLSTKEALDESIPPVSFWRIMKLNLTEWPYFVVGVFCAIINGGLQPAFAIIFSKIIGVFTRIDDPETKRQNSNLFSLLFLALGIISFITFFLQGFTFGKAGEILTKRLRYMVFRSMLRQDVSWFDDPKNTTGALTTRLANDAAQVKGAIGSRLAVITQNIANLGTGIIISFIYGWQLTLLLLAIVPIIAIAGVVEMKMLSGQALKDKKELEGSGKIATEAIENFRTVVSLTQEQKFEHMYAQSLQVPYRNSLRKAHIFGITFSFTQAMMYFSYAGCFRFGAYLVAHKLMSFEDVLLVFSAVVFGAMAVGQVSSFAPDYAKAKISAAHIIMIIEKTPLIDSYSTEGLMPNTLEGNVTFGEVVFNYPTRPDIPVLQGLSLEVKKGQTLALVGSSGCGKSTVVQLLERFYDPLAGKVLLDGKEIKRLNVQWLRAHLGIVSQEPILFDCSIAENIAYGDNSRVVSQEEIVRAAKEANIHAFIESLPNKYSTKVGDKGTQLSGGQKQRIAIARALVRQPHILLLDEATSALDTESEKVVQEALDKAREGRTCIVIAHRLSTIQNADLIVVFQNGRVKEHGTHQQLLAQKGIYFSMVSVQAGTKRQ

Consider `C=CC(=O)N1CCN(c2ncnc3c(F)c(-c4c(O)cccc4F)c(Cl)cc23)CC1` [ARS-1620], for which the pEC50 (commonly −log10 of the EC50, conventionally taken in molar units) was 4.83.

Values taken from publication PMC8905313, “Overexpression of ABCB1 Associated With the Resistance to the KRAS-G12C Specific Inhibitor ARS-1620 in Cancer Cells” (Frontiers in Pharmacology, 2022).
